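Method: 48-hour compound exposure of cells in 96-well plates, five concentrations, linear interpolation of endpoints. Definition used: TGI = concentration required for complete inhibition of growth.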
Columns and labels:
Assay in all cases: DTP human tumour cell line panel, 48 h
A549 NSCLC = test system: A549 NSCLC
HCC-2998 colon = test system: HCC-2998 colon
SF-295 CNS = test system: SF-295 CNS
MOLT-4 leukemia = test system: MOLT-4 leukemia
HCT-116 colon = test system: HCT-116 colon
NCI-H460 lung = test system: NCI-H460 lung
HCT-15 colon = test system: HCT-15 colon
SN12C renal = test system: SN12C renal
OVCAR-5 ovarian = test system: OVCAR-5 ovarian
NCI-H522 lung = test system: NCI-H522 lung
UO-31 renal = test system: UO-31 renal
RPMI-8226 leukemia = test system: RPMI-8226 leukemia
COLO 205 colon = test system: COLO 205 colon
RXF 393 renal = test system: RXF 393 renal
OVCAR-8 ovarian = test system: OVCAR-8 ovarian
SR leukemia = test system: SR leukemia
MDA-MB-231 breast = test system: MDA-MB-231 breast
NCI/ADR-RES ovarian = test system: NCI/ADR-RES ovarian
BT-549 breast = test system: BT-549 breast
T-47D breast = test system: T-47D breast

Row | SMILES | TGI (A549 NSCLC) | TGI (HCC-2998 colon) | TGI (SF-295 CNS) | TGI (MOLT-4 leukemia) | TGI (HCT-116 colon) | TGI (NCI-H460 lung) | TGI (HCT-15 colon) | TGI (SN12C renal) | TGI (OVCAR-5 ovarian) | TGI (NCI-H522 lung) | TGI (UO-31 renal) | TGI (RPMI-8226 leukemia) | TGI (COLO 205 colon) | TGI (RXF 393 renal) | TGI (OVCAR-8 ovarian) | TGI (SR leukemia) | TGI (MDA-MB-231 breast) | TGI (NCI/ADR-RES ovarian) | TGI (BT-549 breast) | TGI (T-47D breast)
1 | COc1cccc2c1[C@H]1OC(=O)NC1CCCCC2 (stereo partly specified) | > 100 µM | > 100 µM | > 100 µM | > 100 µM | > 100 µM | > 100 µM | > 100 µM | > 100 µM | > 100 µM | > 100 µM | > 100 µM | > 100 µM | > 100 µM | > 100 µM | > 100 µM |  |  |  |  | 
2 | FC(F)(F)c1cnc(N/N=C(/c2ccccc2)c2ccccn2)c(Cl)c1 | 14.8 µM | 24.8 µM | 11 µM | > 100 µM | 12.1 µM | 10.5 µM | 33.7 µM | > 100 µM | 31.5 µM | 4.74 µM | 21.7 µM | > 100 µM | 20.6 µM | 32.5 µM | 5.79 µM | 55.3 µM | 32 µM | 6.92 µM | 29.8 µM | 
3 | C=CC1(O)CCCC=C1COCc1ccccc1 (stereo unspecified) | > 100 µM | > 100 µM | > 100 µM | 66.7 µM | > 100 µM | > 100 µM | > 100 µM | > 100 µM | > 100 µM | 32.4 µM | > 100 µM | 68.3 µM | > 100 µM | > 100 µM | > 100 µM | 57 µM | > 100 µM | > 100 µM |  | > 100 µM
4 | O[C@]12c3ccccc3C1CCCCC2N1CCOCC1 (stereo partly specified) | > 100 µM |  | > 100 µM |  | > 100 µM | > 100 µM | > 100 µM | > 100 µM |  | > 100 µM | > 100 µM | > 100 µM | > 100 µM | > 100 µM | > 100 µM | > 100 µM |  |  |  | 
5 | O=c1[nH]nc(Cc2ccccc2)n1C1CC1 | > 100 µM | > 100 µM | > 100 µM | > 100 µM | > 100 µM | > 100 µM | > 100 µM | > 100 µM | > 100 µM | > 100 µM | > 100 µM | > 100 µM | > 100 µM | > 100 µM | > 100 µM | > 100 µM | > 100 µM | > 100 µM |  | > 100 µM
6 | O=C([O-])C1([n+]2c(-c3ccccc3)cc(-c3ccccc3)cc2-c2ccccc2)CC1 | > 100 µM | > 100 µM | > 100 µM | > 100 µM | > 100 µM | > 100 µM | > 100 µM | > 100 µM | > 100 µM | > 100 µM |  | > 100 µM |  | > 100 µM | > 100 µM | > 100 µM |  | > 100 µM |  | 45.2 µM
7 | N=C(N)c1ccc(N=Nc2c(O)ccc3cc(O)ccc23)cc1 | > 100 µM | > 100 µM | > 100 µM | > 100 µM | > 100 µM | > 100 µM | > 100 µM |  | > 100 µM | > 100 µM | > 100 µM | > 100 µM | > 100 µM | > 100 µM | > 100 µM | > 100 µM | > 100 µM | > 100 µM | > 100 µM | 
8 | CCOc1cc2c(cc1O)CC[C@@H]1[C@@H]2CC[C@]2(C)[C@@H](O)CC[C@@H]12 | 48.1 µM | 5.51 µM | 5.87 µM | 11.6 µM | 6.63 µM | 23 µM | 27.2 µM | 46.3 µM | 98.2 µM | 0.0197 µM | 63.1 µM | 7.86 µM | 33.5 µM | 0.816 µM | 33.5 µM | 1.02 µM | 6.67 µM | 8.98 µM | 18.3 µM | 
9 | O=C(NN1C(=O)C(Cl)C1c1c(O)ccc2ccccc12)c1ccccc1O (stereo unspecified) | > 100 µM |  | > 100 µM | > 100 µM | > 100 µM | > 100 µM | > 100 µM | > 100 µM |  | > 100 µM | > 100 µM |  |  | > 100 µM | > 100 µM |  |  |  |  | 
10 | O=C(/C=C/c1cccs1)c1ccc([N+](=O)[O-])cc1 | > 100 µM | > 100 µM | > 100 µM | > 100 µM | > 100 µM | > 100 µM | > 100 µM | > 100 µM |  |  | > 100 µM | > 100 µM | > 100 µM |  | > 100 µM | > 100 µM | > 100 µM | > 100 µM |  | > 100 µM
11 | O=C1NC2=NN=C(c3ccc(Br)cc3)CN2NC12c1ccccc1-c1ccccc12 | > 100 µM | > 100 µM | > 100 µM |  | > 100 µM | > 100 µM | > 100 µM | > 100 µM | > 100 µM | > 100 µM | > 100 µM |  | > 100 µM | > 100 µM | > 100 µM | > 100 µM | > 100 µM | > 100 µM | > 100 µM | 
12 | CSc1nc(C)cc(=O)n1C1OC(COC(C)=O)C(OC(C)=O)C(OC(C)=O)C1OC(C)=O (stereo unspecified) | > 100 µM | > 100 µM | > 100 µM | > 100 µM | > 100 µM | > 100 µM | > 100 µM | > 100 µM | > 100 µM | > 100 µM | > 100 µM | > 100 µM | > 100 µM |  | > 100 µM | > 100 µM |  |  |  | 
13 | CCOC(=O)C(C)(Cc1ccc(O)cn1)NC(=O)c1ccccc1 (stereo unspecified) | > 100 µM | > 100 µM | > 100 µM | > 100 µM | > 100 µM | > 100 µM | > 100 µM |  | > 100 µM | > 100 µM | > 100 µM | > 100 µM | > 100 µM | > 100 µM | > 100 µM | > 100 µM | > 100 µM | > 100 µM | > 100 µM | 
14 | Nc1ncnc2c1ncn2CCOC(c1ccccc1)P(=O)(O)O (stereo unspecified) | > 100 µM | > 100 µM | > 100 µM | > 100 µM | > 100 µM | > 100 µM | > 100 µM | > 100 µM | > 100 µM | > 100 µM | > 100 µM |  | > 100 µM | > 100 µM | > 100 µM | > 100 µM |  |  |  | 
15 | Nc1c(C(=O)c2ccccc2)nnc2ccccc12 | > 100 µM | 54.4 µM |  | > 100 µM | 71.6 µM | 67.1 µM | > 100 µM |  | > 100 µM |  | > 100 µM | > 100 µM | 36 µM |  | > 100 µM | > 100 µM | 53.3 µM | 64.6 µM | 72.7 µM | 
16 | O/N=C1\CSc2ccccc2C1 | > 100 µM | > 100 µM | > 100 µM | > 100 µM | > 100 µM | > 100 µM | > 100 µM | > 100 µM | > 100 µM | > 100 µM | > 100 µM | > 100 µM | > 100 µM | > 100 µM | > 100 µM | > 100 µM | > 100 µM | > 100 µM |  | > 100 µM
17 | O=C1c2ccccc2/C=C\C(c2ccccc2)=N/N1c1ccccc1Cl | 60.5 µM | > 100 µM | > 100 µM | 77.1 µM | > 100 µM | > 100 µM | > 100 µM | > 100 µM | > 100 µM | 35.8 µM | 98.8 µM | 80.5 µM |  | 47.7 µM | > 100 µM |  | 49.2 µM | 63.5 µM | 28 µM | 
18 | CCN(CC)C(=S)S |  | > 100 µM | > 100 µM |  | 19.7 µM |  | > 100 µM | > 100 µM | > 100 µM | 0.362 µM | > 100 µM | > 100 µM | > 100 µM | > 100 µM | > 100 µM |  |  |  |  | 
19 | C=CCCCCCCCCC(=O)ON(Cc1ccc(O)c(OC)c1)C(=O)C(F)(F)F | > 100 µM | > 100 µM | > 100 µM | > 100 µM | > 100 µM | > 100 µM | > 100 µM | > 100 µM | > 100 µM |  | 68 µM | > 100 µM | > 100 µM | > 100 µM | > 100 µM | > 100 µM | > 100 µM | > 100 µM |  | > 100 µM
20 | NC(N)=N/N=C\c1c(-c2ccccc2)nc2sccn12 | 31.8 µM | 16.8 µM | 27.9 µM | 51.7 µM | 28.5 µM | 29.7 µM | 29.8 µM | 28.8 µM | 30.6 µM | 24.6 µM | 31.6 µM | 49 µM | 24.6 µM | 26.3 µM | 30.9 µM | > 100 µM | 27.3 µM | 34.9 µM |  | 29.1 µM
21 | CC(=O)OC1CC[C@@]2(C)C(=CC[C@@H]3[C@@H]2CC[C@]2(C)C(OC(C)=O)[C@H](n4ccnc4)C[C@@H]32)C1 (stereo partly specified) | > 100 µM |  | > 100 µM | 30.3 µM | 31.2 µM | 33.4 µM | 30.6 µM | > 100 µM | > 100 µM | 40.9 µM | > 100 µM | 55.2 µM | 34.4 µM | > 100 µM | 44.2 µM | 36.7 µM | > 100 µM | > 100 µM |  | 
22 | Cn1c(=O)c(C(=O)NC23CC4CC(CC(C4)C2)C3)c(O)c2ccccc21 | > 100 µM |  | 57.4 µM | > 100 µM | 57.9 µM | 51.1 µM | > 100 µM | 54.8 µM |  | > 100 µM | > 100 µM | > 100 µM | > 100 µM | 35.9 µM | 64.1 µM | > 100 µM |  |  |  | 

Reference: PubChem BioAssay (NCI)
